Legend:
[1] = target: Dual specificity mitogen-activated protein kinase kinase 1 (Homo sapiens) (UniProt Q02750); assay: Residual activity of human MEK1 using ERK2 (K52R) as substrate at 1 uM in presence of 32P-ATP by Hotspot assay relative to control
[2] = target: T1, Activin receptor type-1B (Homo sapiens) (UniProt P36896); assay: Residual activity of human ALK4/ACVR1B using casein as substrate at 1 uM in presence of 32P-ATP by Hotspot assay relative to control
T1 sequence (whole entry): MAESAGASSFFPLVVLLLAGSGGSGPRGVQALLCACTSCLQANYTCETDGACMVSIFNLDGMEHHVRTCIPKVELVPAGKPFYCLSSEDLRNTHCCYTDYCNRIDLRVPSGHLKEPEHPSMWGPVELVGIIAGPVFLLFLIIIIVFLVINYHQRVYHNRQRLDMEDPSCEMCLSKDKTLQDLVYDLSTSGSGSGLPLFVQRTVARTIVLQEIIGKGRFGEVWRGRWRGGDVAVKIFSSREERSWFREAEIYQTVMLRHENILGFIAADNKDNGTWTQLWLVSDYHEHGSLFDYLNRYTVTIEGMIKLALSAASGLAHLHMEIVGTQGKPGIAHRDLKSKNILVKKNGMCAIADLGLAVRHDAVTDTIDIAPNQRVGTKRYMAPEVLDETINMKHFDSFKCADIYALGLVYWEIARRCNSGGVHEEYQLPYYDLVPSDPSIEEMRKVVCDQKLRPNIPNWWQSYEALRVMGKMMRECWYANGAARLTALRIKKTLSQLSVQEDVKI

[3] = target: Dual specificity tyrosine-phosphorylation-regulated kinase 1A (Homo sapiens) (UniProt Q13627); assay: Residual activity of human DYRK1/DYRK1A using RRRFRPASPLRGPPK as substrate at 1 uM in presence of 32P-ATP by Hotspot assay relative to control
[4] = target: Serine/threonine-protein kinase PAK 2 (Homo sapiens) (UniProt Q13177); assay: Inhibition of human PAK2 using RRRLSFAEPG as substrate at 1 uM in presence of 32P-ATP by Hotspot assay relative to control; values are per cent of control
[5] = target: T2, Aurora kinase C (Homo sapiens) (UniProt Q9UQB9); assay: Inhibition of human Aurora C using H-LRRASLG as substrate at 1 uM in presence of 32P-ATP by Hotspot assay relative to control; values are per cent of control
T2 sequence (whole entry): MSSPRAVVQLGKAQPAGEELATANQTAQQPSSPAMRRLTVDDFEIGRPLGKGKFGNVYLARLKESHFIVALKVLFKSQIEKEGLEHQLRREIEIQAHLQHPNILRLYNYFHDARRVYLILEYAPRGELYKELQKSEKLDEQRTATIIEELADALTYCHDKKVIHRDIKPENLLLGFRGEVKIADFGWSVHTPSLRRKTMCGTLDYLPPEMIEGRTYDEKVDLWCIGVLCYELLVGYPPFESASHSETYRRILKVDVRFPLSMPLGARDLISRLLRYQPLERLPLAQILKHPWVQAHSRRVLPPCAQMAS

[6] = target: Leukocyte tyrosine kinase receptor (Homo sapiens) (UniProt P29376); assay: Inhibition of human TYK1/LTK using EAIYAAPFAKKK as substrate at 1 uM in presence of 32P-ATP by Hotspot assay relative to control; values are per cent of control
[7] = target: Ribosomal protein S6 kinase alpha-5 (Homo sapiens) (UniProt O75582); assay: Inhibition of human MSK1/RPS6KA5 using GRPRTSSFAEG as substrate at 1 uM in presence of 32P-ATP by Hotspot assay relative to control; values are per cent of control
[8] = target: T3, Ephrin type-A receptor 8 (Homo sapiens) (UniProt P29322); assay: Inhibition of human EPHA8 using poly[Glu:Tyr] (4:1) as substrate at 1 uM in presence of 32P-ATP by Hotspot assay relative to control; values are per cent of control
T3 sequence (whole entry): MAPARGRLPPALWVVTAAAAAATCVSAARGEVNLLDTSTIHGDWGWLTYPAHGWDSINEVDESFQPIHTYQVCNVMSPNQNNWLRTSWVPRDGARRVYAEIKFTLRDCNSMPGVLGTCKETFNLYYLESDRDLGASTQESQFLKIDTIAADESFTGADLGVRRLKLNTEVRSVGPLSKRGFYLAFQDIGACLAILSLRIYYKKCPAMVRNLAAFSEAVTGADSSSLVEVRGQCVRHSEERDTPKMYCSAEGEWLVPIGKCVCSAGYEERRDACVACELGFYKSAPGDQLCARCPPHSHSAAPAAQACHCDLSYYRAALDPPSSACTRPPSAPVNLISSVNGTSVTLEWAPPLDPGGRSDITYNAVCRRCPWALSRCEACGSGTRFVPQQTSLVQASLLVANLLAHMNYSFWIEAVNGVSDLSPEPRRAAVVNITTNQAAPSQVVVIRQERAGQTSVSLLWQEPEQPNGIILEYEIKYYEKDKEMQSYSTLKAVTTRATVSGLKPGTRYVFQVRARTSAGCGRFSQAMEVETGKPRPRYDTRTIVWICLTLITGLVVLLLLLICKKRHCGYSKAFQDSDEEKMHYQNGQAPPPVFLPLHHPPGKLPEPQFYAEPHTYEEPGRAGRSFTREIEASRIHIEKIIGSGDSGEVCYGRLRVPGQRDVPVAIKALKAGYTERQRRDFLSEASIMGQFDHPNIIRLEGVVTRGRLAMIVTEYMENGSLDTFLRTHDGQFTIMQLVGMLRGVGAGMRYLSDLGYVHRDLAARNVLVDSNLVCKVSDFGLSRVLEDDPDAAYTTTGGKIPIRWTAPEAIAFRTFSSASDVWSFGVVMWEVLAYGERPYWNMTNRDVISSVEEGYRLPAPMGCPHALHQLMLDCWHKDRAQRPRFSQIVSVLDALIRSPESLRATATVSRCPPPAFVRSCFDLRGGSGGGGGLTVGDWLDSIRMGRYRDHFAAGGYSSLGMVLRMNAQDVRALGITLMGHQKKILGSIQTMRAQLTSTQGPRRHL

[9] = target: TGF-beta receptor type-2 (Homo sapiens) (UniProt P37173); assay: Inhibition of human TGFBR2 using myelin basic protein as substrate at 1 uM in presence of 32P-ATP by Hotspot assay relative to control; values are per cent of control
[10] = target: Glycogen synthase kinase-3 beta (Homo sapiens) (UniProt P49841); assay: Inhibition of human GSK3b using YRRAAVPPSPSLSRHSSPHQ(pS)EDEEE as substrate at 1 uM in presence of 32P-ATP by Hotspot assay relative to control; values are per cent of control
Sequence of Glycogen synthase kinase-3 beta (Homo sapiens) (P49841 whole entry, looked up): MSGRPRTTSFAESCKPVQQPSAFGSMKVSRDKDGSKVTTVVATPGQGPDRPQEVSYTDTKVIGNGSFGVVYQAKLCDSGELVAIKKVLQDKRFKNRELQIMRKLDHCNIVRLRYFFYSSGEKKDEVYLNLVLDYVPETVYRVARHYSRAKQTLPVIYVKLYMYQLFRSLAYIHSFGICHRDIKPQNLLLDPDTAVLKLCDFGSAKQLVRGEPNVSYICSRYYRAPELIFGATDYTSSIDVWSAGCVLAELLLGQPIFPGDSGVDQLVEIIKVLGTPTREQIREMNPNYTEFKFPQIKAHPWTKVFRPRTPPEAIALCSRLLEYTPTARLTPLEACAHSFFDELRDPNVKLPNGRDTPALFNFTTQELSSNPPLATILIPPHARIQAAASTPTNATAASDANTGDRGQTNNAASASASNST

Sequence of Serine/threonine-protein kinase PAK 2 (Homo sapiens) (Q13177 whole entry): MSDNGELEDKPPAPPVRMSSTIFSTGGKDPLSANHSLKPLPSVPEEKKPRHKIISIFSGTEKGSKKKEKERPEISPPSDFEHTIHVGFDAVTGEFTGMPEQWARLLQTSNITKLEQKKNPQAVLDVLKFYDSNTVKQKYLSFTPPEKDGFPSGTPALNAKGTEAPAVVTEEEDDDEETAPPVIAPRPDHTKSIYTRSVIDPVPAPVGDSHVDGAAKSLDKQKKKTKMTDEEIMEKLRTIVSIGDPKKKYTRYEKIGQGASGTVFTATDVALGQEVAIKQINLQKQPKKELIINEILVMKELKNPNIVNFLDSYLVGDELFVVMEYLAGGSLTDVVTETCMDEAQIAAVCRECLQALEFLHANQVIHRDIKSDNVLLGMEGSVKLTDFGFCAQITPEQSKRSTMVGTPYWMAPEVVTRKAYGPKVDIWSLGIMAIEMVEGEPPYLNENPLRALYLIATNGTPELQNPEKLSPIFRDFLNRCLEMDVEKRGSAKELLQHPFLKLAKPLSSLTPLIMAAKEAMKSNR
Sequence of Dual specificity mitogen-activated protein kinase kinase 1 (Homo sapiens) (Q02750 whole entry): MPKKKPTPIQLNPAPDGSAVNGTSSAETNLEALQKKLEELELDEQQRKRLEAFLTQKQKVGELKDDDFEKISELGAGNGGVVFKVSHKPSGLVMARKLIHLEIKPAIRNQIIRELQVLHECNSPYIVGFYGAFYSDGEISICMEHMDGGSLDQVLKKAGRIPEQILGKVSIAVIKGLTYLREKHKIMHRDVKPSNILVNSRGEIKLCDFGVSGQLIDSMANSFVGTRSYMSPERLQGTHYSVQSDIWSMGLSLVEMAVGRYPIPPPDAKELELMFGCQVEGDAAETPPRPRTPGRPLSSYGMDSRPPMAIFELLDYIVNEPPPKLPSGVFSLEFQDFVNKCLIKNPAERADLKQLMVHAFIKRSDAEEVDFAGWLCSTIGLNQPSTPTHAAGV
Sequence of TGF-beta receptor type-2 (Homo sapiens) (P37173 whole entry): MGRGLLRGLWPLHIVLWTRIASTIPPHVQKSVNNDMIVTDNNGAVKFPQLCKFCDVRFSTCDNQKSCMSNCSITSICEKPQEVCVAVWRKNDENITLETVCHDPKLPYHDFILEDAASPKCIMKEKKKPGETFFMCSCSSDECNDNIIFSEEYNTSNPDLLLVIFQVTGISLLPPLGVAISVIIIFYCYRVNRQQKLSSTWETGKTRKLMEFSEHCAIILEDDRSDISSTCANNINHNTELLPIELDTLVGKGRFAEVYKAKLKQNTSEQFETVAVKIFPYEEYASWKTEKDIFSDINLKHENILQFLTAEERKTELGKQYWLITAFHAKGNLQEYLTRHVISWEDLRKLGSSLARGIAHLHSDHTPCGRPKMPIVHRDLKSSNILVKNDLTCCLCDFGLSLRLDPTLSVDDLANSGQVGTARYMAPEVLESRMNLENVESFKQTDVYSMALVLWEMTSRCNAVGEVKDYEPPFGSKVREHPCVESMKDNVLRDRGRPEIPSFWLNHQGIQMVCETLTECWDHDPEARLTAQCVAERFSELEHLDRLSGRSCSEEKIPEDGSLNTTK
Sequence of Leukocyte tyrosine kinase receptor (Homo sapiens) (P29376 whole entry): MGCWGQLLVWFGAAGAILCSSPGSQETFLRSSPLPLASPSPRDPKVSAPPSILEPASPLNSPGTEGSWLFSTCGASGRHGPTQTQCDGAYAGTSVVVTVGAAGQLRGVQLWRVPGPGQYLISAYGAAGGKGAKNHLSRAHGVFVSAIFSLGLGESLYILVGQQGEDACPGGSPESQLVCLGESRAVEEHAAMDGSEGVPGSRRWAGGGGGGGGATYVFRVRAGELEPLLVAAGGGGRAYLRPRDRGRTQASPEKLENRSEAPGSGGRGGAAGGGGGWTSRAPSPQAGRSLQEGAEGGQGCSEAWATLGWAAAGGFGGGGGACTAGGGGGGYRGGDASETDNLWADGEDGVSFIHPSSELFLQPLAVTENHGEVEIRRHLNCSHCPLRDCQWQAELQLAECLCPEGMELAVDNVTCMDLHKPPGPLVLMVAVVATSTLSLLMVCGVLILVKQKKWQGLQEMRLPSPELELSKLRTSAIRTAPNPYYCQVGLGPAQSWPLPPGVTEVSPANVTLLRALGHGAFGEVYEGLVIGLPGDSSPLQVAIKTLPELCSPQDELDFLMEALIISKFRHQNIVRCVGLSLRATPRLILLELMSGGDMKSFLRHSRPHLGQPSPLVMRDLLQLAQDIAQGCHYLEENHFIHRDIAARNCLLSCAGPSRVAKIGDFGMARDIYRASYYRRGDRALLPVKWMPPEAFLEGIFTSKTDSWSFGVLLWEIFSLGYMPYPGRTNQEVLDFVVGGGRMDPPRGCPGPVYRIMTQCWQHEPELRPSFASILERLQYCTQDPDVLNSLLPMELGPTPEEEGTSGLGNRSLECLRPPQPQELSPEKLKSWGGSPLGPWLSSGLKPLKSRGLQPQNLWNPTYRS
Sequence of Ribosomal protein S6 kinase alpha-5 (Homo sapiens) (O75582 whole entry, looked up): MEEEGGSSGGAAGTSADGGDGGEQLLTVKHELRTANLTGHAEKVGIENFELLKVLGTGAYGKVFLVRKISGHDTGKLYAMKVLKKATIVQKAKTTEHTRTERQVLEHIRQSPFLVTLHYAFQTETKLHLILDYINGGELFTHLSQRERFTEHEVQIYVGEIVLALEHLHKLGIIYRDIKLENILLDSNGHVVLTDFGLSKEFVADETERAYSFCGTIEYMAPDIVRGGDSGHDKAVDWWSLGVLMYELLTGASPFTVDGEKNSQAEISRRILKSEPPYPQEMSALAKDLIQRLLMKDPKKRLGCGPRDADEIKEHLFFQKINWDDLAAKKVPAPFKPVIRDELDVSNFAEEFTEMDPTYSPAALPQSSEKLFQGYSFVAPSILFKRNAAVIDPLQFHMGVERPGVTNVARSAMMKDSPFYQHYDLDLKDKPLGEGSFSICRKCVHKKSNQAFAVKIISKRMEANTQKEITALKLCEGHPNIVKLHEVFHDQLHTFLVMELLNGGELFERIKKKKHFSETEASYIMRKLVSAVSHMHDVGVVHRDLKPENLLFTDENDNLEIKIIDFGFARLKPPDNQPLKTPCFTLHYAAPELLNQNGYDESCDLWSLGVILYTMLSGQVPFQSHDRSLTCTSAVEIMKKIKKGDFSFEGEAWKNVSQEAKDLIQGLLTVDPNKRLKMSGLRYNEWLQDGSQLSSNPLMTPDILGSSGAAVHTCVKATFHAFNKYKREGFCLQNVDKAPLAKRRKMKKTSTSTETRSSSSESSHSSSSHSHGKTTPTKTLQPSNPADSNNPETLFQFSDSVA

Row | Compound | residual activity [1] [%] | residual activity [2] [%] | residual activity [3] [%] | residual activity [4] [%] | residual activity [5] [%] | residual activity [6] [%] | residual activity [7] [%] | residual activity [8] [%] | residual activity [9] [%] | residual activity [10] [%]
1 | CNC(=O)c1ccc2c(c1)ncn2-c1ccc(CC(=O)OC(C)(C)C)cc1 | 86.8 | 93.9 | 99.4 | 91 | 95.5 | 101 | 89.4 | 96.7 | 73.3 | 65.2
2 | Cc1cc(-c2cnc(N)c3c(-c4ccc5scnc5c4)csc23)n(C)n1 | 59.7 | 96.8 | 99.6 | 96.2 | 91.3 | 73.8 | 97.4 | 62.7 | 35.2 | 93.2
3 | CC(C)S(=O)(=O)c1ccc2nccc(Nc3ccc4scnc4c3)c2c1 | 102 | 100 | 98.8 | 101 | 88.3 | 98.3 | 97.9 | 42.8 | 101 | 83.8

— ChEMBL document CHEMBL5649166, “RIP3 induces apoptosis independent of pronecrotic kinase activity” (Mol Cell, 2014)
